Entries after “also recorded” stand apart in the source; their conditions may differ. Where two headings read alike, the source gives them in different places.
How the values were obtained:
Format in all cases: cell-based
[1] = test system: NRF2 activity in H1299-NQO1-YFP cells; test: NRF2 activity reporter IC50 in H1299-NQO1-YFP cells vs NRF2 pathway activators (IncuCyte, YFP/mCherry)
Protocol: Readings were taken every 2 hours for at least 24 hours. […] Readings were also taken every 2 hours for 96 hours in and IncuCyte S3.
YFP total intensity (correlating to NRF2 activity) was normalized to NLS-mCherry (cell number) total intensity to give a ratio (YFP/mCherry). Ratios at one time point at least 24 hours post compounds were added were used. These numbers were then plotted in Graphpad Prism to calculate IC50s. […] From three biological replicates, percent confluence was used for proliferation assays to calculate IC50s, calculations performed using Graphpad Prism.

NRF2 protein = test: Western blot analysis of NRF2 protein abundance and downstream targets in cell lines; settings: for NRF2 protein abundance: western blot, 24-48 hours, PYR 10 μM, analogs 1 μM (104 in HEK293T 10 μM), MTX and PEM 0.1 μM, CG 10 μM
Protocol: Western Blots: KYSE70, HEK293T cells were plated and 24 hours later treated with compounds (see figure legends for details). Either at 24 or 48 hours later, cells were scrapped in RIPA buffer (0.2% deoxycholate, 0.1% SDS, 1% NP40, 150 mM NaCl, 50 mM Tris pH 7.4, 2 mM EDTA) supplemented with protease and phosphatase inhibitors, cleared at 14000×g for 15 minutes at 4° C., and supernatants were quantified by BCA assay (Pierce, 23225). Protein samples (20 μg) were prepared with 1×LDS buffer with 100 mM DTT, ran on NuPAGE 4-12% Bis-tris gels, and transferred onto a […] nitrocellulose membrane (Thermo, 88018). All blots were blocked in 5% milk in TBST for 30 minutes. After incubation of the primary antibody overnight at 4° C. and washed three times with 1×TBST, blots were incubated with LI-COR secondary antibodies for 1-2 hours, washed in 1×TBST thrice, and then imaged via a LI-COR Odyssey instrument (Li-COR, Lincoln, Nebr.).

[2] = test system: NRF2 mRNA and NRF2 target gene mRNA; test: RT-qPCR of NRF2 mRNA and NRF2 downstream targets in KYSE70 cells; settings: 24 or 48 hours, PYR 10 μM, analogs 1 μM, MTX and PEM 0.1 μM
Protocol: qRT-PCR: Total RNA was extracted using PureLink RNA kit following the manufacturers protocol. Primers for qPCR were designed using the National Center for Biotechnology Information's (NCBI) Primer-BLAST platform. For primer sequences, see Table 2. RNA was quantified using a Nanodrop One (Thermo, Waltham, Mass.), and the reverse transcription reaction was performed using 2 μg of RNA with the iSCRIPT Clear kit with DNAse (Biorad, 170-8891). For the qRT-PCR, PowerUP SYBR Green (Thermo, A25741) was used, and data were analyzed on an AB QuantStudio 6 Flex Real Time PCR machine (Applied Biosystems, Foster City, Calif.). ΔCT values were normalized to housekeeping gene RPL13a and then normalized to DMSO for final ΔΔCT value.

[3] = Table 1, activator CDDO 0.1 μM, H1299-NQO1-YFP cells, read-out: CDDO 0.1 μM IC50 μM ± SEM
[4] = Table 1, activator SULF 2 μM, H1299-NQO1-YFP cells, read-out: SULF 2 μM IC50 μM ± SEM
[5] = Table 1 and text, average over activators CDDO, PRL295, SULF, H1299-NQO1-YFP cells, read-out: Avg IC50
[6] = Table 6 NRF2 inhibitors, read-out: Avg IC50
[7] = read-out: PRL295 5 μM IC50 AM ± SEM, Table 1, activator PRL295 5 μM, H1299-NQO1-YFP cells

Row | IC50 [1, 3] | IC50 [1, 4] | IC50 [1, 5] | IC50 [1, 6] | IC50 [1, 7] | Compound | other results
1 | 16.9 ± 0.208 µM | 12.56 ± 0.103 µM | 14.9 µM | 14.9 µM | 15.2 ± 1.29 µM | CCc1nc(N)nc(N)c1-c1ccc(S(=O)(=O)C2CC3CC3C2)cc1 (stereo not shown) [WCDD108, 5-(4-(bicyclo[3.1.0]hexan-3-ylsulfonyl)phenyl)-6-ethylpyrimidine-2,4-diamine] | 
2 |  |  | > 20 µM | > 20 µM |  | CCc1nc(N)nc(N)c1-c1ccc(S(=O)(=O)C2CCCC2)cc1 [WCDD106, 5-(4-(cyclopentylsulfonyl)phenyl)-6-ethylpyrimidine-2,4-diamine] | 
3 |  |  | > 20 µM | > 20 µM |  | CCc1nc(N)nc(N)c1-c1ccc(S(=O)(=O)N2CC3(COC3)C2)cc1 [WCDD107, 5-(4-((2-oxa-6-azaspiro[3.3]heptan-6-yl)sulfonyl)phenyl)-6-ethylpyrimidine-2,4-diamine] | 
4 | 0.614 ± 0.021 µM | 0.557 ± 0.03 µM | 0.5 µM | 0.57 µM | 0.552 ± 0.003 µM | CCc1nc(N)nc(N)c1-c1ccc2c(c1)CCC2 [WCDD119, 5-(2,3-dihydro-1H-inden-5-yl)-6-ethylpyrimidine-2,4-diamine] | 
5 | 1.1 ± 0.016 µM | 0.91 ± 0.01 µM | 1.18 µM | 1.18 µM | 1.51 ± 0.0329 µM | CCc1nc(N)nc(N)c1-c1ccccc1 [WCDD111, 6-ethyl-5-phenylpyrimidine-2,4-diamine] | 
6 |  |  | > 20 µM |  |  | CCc1nc(N)nc(NC)c1-c1ccc(Cl)cc1 [WCDD133a, 5-(4-chlorophenyl)-6-ethyl-N4-methylpyrimidine-2,4-diamine] | 
7 | 0.134 ± 0.014 µM | 0.111 ± 0.009 µM | 0.1 µM | 0.108 µM | 0.079 ± 0.002 µM | CCc1nc(N)nc(N)c1-c1cc(Cl)cc(Cl)c1 [WCDD114, 5-(3,5-dichlorophenyl)-6-ethylpyrimidine-2,4-diamine] | IC50 ([1]; unit inferred, read-out: IC50): 0.1 µM; NRF2 protein abundance (NRF2 protein): decrease NRF2 protein abundance
8 | 0.469 ± 0.002 µM | 0.454 ± 0.006 µM | 0.456 µM | 0.456 µM | 0.444 ± 0.002 µM | Nc1nc(N)c(-c2cccc(Cl)c2)c(CC2CCC2)n1 [WCDD127, 5-(3-chlorophenyl)-6-(cyclobutylmethyl)pyrimidine-2,4-diamine] | 
9 | 0.103 ± 0.001 µM | 0.129 ± 0.003 µM | 0.1 µM | 0.098 µM | 0.061 ± 0.003 µM | CCc1nc(N)nc(N)c1-c1cccc(Cl)c1 [WCDD104, 5-(3-chlorophenyl)-6-ethylpyrimidine-2,4-diamine] | IC50 ([1]; unit inferred, read-out: IC50): 0.1 µM; NRF2 protein on co-treatment with Bortezomib (NRF2 protein; BORT 0.04 μM co-treatment, HEK293T, H1299): demonstrated a proteasomal requirement for activity; NRF2 protein abundance (NRF2 protein): inhibition of NRF2 protein abundance and downstream target gene expression; also recorded: decrease NRF2 protein abundance
10 |  |  | > 5 µM | > 5 µM |  | CCc1nc(N)nc(N)c1-c1cccc(N2CCCC2)c1 [WCDD122, 6-ethyl-5-(3-(pyrrolidin-1-yl)phenyl)pyrimidine-2,4-diamine] | 
11 | 5.12 ± 0.074 µM | 3.279 ± 0.006 µM | 4.04 µM | 4.04 µM | 3.74 ± 0.499 µM | CCc1nc(N)nc(N)c1-c1ccc(C(C)(F)F)cc1 [WCDD105, 5-(4-(1,1-difluoroethyl)phenyl)-6-ethylpyrimidine-2,4-diamine] | 
12 |  |  | > 20 µM | > 20 µM |  | CCc1nc(N)nc(N)c1-c1ccc(N2CC3CC3C2)cc1 (stereo not shown) [WCDD110, 5-(4-(3-azabicyclo[3.1.0]hexan-3-yl)phenyl)-6-ethylpyrimidine-2,4-diamine] | 

Further lines, the molecule ahead of its results:

Row | Compound | IC50 [1, 3] | IC50 [1, 4] | IC50 [1, 5] | IC50 [1, 6] | IC50 [1, 7] | other results
13 | CCc1nc(NC)nc(NC)c1-c1ccc(Cl)cc1 [WCDD133, 5-(4-chlorophenyl)-6-ethyl-N2,N4-dimethylpyrimidine-2,4-diamine] |  |  | > 20 µM |  |  | 
14 | CCc1nc(N)nc(N)c1-c1cccc(Cl)c1F [WCDD121, 5-(3-chloro-2-fluorophenyl)-6-ethylpyrimidine-2,4-diamine] |  |  | > 5 µM | > 5 µM |  | 
15 | NCCCc1nc(N)nc(N)c1-c1cccc(C(F)(F)F)c1 [WCDD135, 6-(3-aminopropyl)-5-(3-(trifluoromethyl)phenyl)pyrimidine-2,4-diamine] |  |  | > 20 µM |  |  | 
16 | Nc1nc(N)c(-c2cccc(C(F)(F)F)c2)c(CCCNC(=O)CCCC[C@H]2SCC3NC(O)NC32)n1 (stereo partly drawn) [WCDD137, N-(3-(2,6-diamino-5-(3-(trifluoromethyl)phenyl)pyrimidin-4-yl)propyl)-5-((4R)-2-hydroxyhexahydro-1H-thieno[3,4-d]imidazol-4-yl)pentanamide] |  |  | 4.84 µM |  | 4.84 ± 0.284 µM | 
17 | C#CCCCc1nc(N)nc(N)c1-c1cccc(Cl)c1 [WCDD128, 5-(3-chlorophenyl)-6-(pent-4-yn-1-yl)pyrirnidine-2,4-diamine] | 0.244 ± 0.006 µM | 0.163 ± 0.002 µM | 0.248 µM | 0.248 µM | 0.334 ± 0.004 µM | 
18 | Nc1ncc(-c2cccc(Cl)c2)c(N)n1 [WCDD134, 5-(3-chlorophenyl)pyrimidine-2,4-diamine] | 1.84 ± 0.196 µM | 1.88 ± 0.024 µM | 1.43 µM | 1.43 µM | 1.84 ± 0.196 µM | 
19 | CCC1=NC(N)=NC(=O)C1c1ccc(Cl)cc1 (stereo not shown) [WCDD112, 2-amino-5-(4-chlorophenyl)-6-ethylpyrimidin-4(5H)-one] | 19.8 ± 0.338 µM | 10.92 ± 0.0655 µM | 13.9 µM | 13.9 µM | 10.8 ± 0.62 µM | 
20 | CCc1nc(N)nc(N)c1-c1cc(Cl)ccc1Cl [WCDD120, 5-(2,5-dichlorophenyl)-6-ethylpyrimidine-2,4-diamine] |  |  | > 10 µM | > 10 µM |  | 
21 | Nc1ncc(-c2ccc(Cl)cc2)c(N)n1 [WCDD103, 5-(4-chlorophenyl)pyrimidine-2,4-diamine] | 16.9 ± 2.56 µM | 12.5 ± 0.798 µM | 13.1 µM | 13.1 µM | 9.99 ± 0.0737 µM | 
22 | C=CCCc1nc(N)nc(N)c1-c1cccc(C(F)(F)F)c1 [WCDD139, 6-(but-3-en-1-yl)-5-(3-(trifluoromethyl)phenyl)pyrimidine-2,4-diamine] | 0.206 ± 0.0014 µM | 0.097 ± 0.003 µM | 0.14 µM | 0.14 µM | 0.106 ± 0.003 µM | 
23 | COCCOCCc1nc(N)nc(N)c1-c1cccc(Cl)c1 [WCDD126, 5-(3-chlorophenyl)-6-(2-(2-methoxyethoxy)ethyl)pyrimidine-2,4-diamine] | 0.461 ± 0.017 µM | 0.397 ± 0.011 µM | 0.514 µM | 0.514 µM | 0.683 ± 0.002 µM | 
24 | CC1(C)N=C(N)N=C(N)N1c1ccc(Cl)cc1 [CG, reference compound] |  |  |  |  |  | IC50 ([1]; Table 3, activator CDDO 100 nM, H1299-NQO1-YFP cells, read-out: CDDO 100 nM IC50 μM ± SEM): 1.82 ± 0.085 µM; IC50 ([1]; Table 3, activator SULF 2 μM, H1299-NQO1-YFP cells, read-out: SULF 2 μM IC50 μM ± SEM): 1.5 ± 0.0466 µM; IC50 ([1]; Table 3, average over activators, H1299-NQO1-YFP cells, read-out: Avg IC50): 1.7 µM; IC50 ([1]; read-out: PRL295 5 μM IC50 μM ± SEM, Table 3, activator PRL295 5 μM, H1299-NQO1-YFP cells): 1.57 ± 0.008 µM; NRF2 protein abundance (NRF2 protein): decreased; NRF2 mRNA and NRF2 target gene mRNA [2]: decreased
25 | C#CCCC1(CCC(=O)NCCCc2nc(N)nc(N)c2-c2cccc(C(F)(F)F)c2)N=N1 [WCDD136, 3-(3-(but-3-yn-1-yl)-3H-diazirin-3-yl)-N-(3-(2,6-diamino-5-(3-(trifluoromethyl)phenyl)pyrimidin-4-yl)propyl)propanamide] |  |  | ~0.15 µM |  | 0.153 ± 0.002 µM | 
26 | CCc1ncnc(N)c1-c1cccc(Cl)c1 [WCDD125, 5-(3-chlorophenyl)-6-ethylpyrimidin-4-amine] |  |  | > 20 µM | > 20 µM |  | 
